This note sets out measurements from patent publication US8779120B2, “Macrocyclic derivatives of glycolurils, and methods of preparing and using the same” (Masarykova Univerzita, priority 2009, dated 2014).

Data set [1] is described as follows: 1H NMR competition of dodecamethylbambus[6]uril-HCl complex with tetrabutylammonium tetrafluoroborate, association constant. As to conditions: CD3OD:CDCl3=2:1, equimolar mixture, overall concentration 5 mM. Format: binding. As to the method:
(§1) Equimolar mixture of dodecamethylbambus[6]uril-HCl complex and tetrabutylammonium bearing bromide, iodide, and tetrafluoroborate anions was dissolved in the mixture of CD3OD:CDCl3=2:1 to obtain solution in which overall concentration of dissolved solids was 5 mM. In all cases obtained ^1H NMR spectrum was identical with the spectrum of corresponding complex (see Example 20-22). As signals corresponding to dodecamethylbambus[6]uril-HCl complex were not observed the value of association constants for all complexes was calculated to be higher than 5×10^4 M^−1.

Data set [2] in a line: 1H NMR competition of dodecamethylbambus[6]uril-HCl complex with tetrabutylammonium bromide, association constant. The data set is classed as binding. As to conditions: CD3OD:CDCl3=2:1, equimolar mixture, overall concentration 5 mM. As to the method:
as §1

Data set [3] is described as follows: Solubility of anion free macrocycle in studied solvent systems. Format: physicochemical. As to conditions: anion free form; chloroform, methanol, DMSO, acetonitrile, water or the mixtures of these solvents. As to the method:
Dodecamethylbambus[6]uril-HI complex (0.5 g) was dissolved in the mixture of chloroform (50 ml) and methanol (50 ml). 30% H2O2 (0.25 ml) was added and the solution was stirred at room temperature for 24 h. The resulting white precipitate was collected by filtration and washed with equimolar mixture of chloroform and methanol. […] When tetrabutylammonium bearing bromide, iodide, and tetrafluoroborate anions is added to the suspension of obtained white powder in equimolar mixture of chloroform and methanol the immediate formation of transparent solution was observed. ^1H NMR spectra of the solutions correspond to the spectra of the complex between dodecamethylbambus[6]uril and corresponding anion.
Titanium dioxide powder (Aeroxide P25, typically 0.1 mg) was suspended in a solution of dodecamethylbambus[6]uril-HI complex (5.0 mM) in acetonitrile/water (1:1, 0.5 mL) in a standard quartz UV cuvette. The mixture was purged with oxygen for 5 min and irradiated at either wave lengths 254 or 366 nm. After 4 h white precipitated of anion free dodecamethylbambus[6]uril was obtained in 87% yield. […]

Data set [4] can be described thus: 1H NMR competition of dodecamethylbambus[6]uril-HCl complex with tetrabutylammonium iodide, association constant. Format: binding. As to conditions: CD3OD:CDCl3=2:1, equimolar mixture, overall concentration 5 mM. As to the method:
as §1

On to `CN1C(=O)N(C)[C@@H]2[C@H]1N1CN3C(=O)N(CN4C(=O)N(CN5C(=O)N(CN6C(=O)N(CN7C(=O)N(CN2C1=O)[C@@H]1[C@H]7N(C)C(=O)N1C)[C@@H]1[C@H]6N(C)C(=O)N1C)[C@@H]1[C@H]5N(C)C(=O)N1C)[C@@H]1[C@H]4N(C)C(=O)N1C)[C@@H]1[C@H]3N(C)C(=O)N1C` [dodecamethylbambus[6]uril, Dodecamethylbambus[6]uril], for which the “association constant of complex with tetrafluoroborate anion” value in data set [1] is “higher than 5×10^4 M^−1”. The “association constant of complex with bromide anion” value in data set [2] was “higher than 5×10^4 M^−1”. Besides, in data set [3], the “solubility of the anion free powder” value is “does not dissolve”. In addition, in data set [4], the “association constant of complex with iodide anion” value was “higher than 5×10^4 M^−1”.
